2 compounds from patent publication US4101656A, “7β-Acylamino-3-(alkanesulfonamidoalkyl substituted tetrazolylthiomethyl) cephalosporins, antibacterial compositions containing them and methods of treating bacterial infections with them” (Smithkline Corporation, priority 1976, dated 1978) can be followed below.

≈ marks a conversion by molar mass, not a printed value. Like-named read-outs stand apart in the source and are kept apart here. A value given as a limit tells only on which side of the number the result lay.

One test concerns Kleb. pneumo. 4200. The test can be described thus: in vivo mouse protection test, Kleb. pneumo. 4200. The following applies: sc. The procedure: (§1) 4200 upon subcutaneous injection; cefazolin gave results of 4 mg/kg against E. coli 12140 and 11.3 mg/kg against Kleb. pneumo. 4200 upon subcutaneous administration.
The test system of another test is Entero. cloacae HH 31254. The test can be described thus: in vitro MIC testing, Entero. cloacae HH 31254. It counts as cell-based. The conditions noted are these: Enterobacter cloacae, HH31254. The procedure: (§2) The compounds of Formula I have exceptional antibacterial activity against both Gram-positive and Gram-negative organisms. Minimum inhibitory concentrations (MIC's) range from 0.2 to >200 μg/ml in in vitro testing. Test results for the compound 7β-D-mandelamido-3-[1-(2-methanesulfonamidoethyl)tetrazol-5-ylthiomethyl]-3-cephem-4-carboxylic acid sodium salt hydrate (Compound A) are given below: […]

The subject of a further test is Salmonella ATCC 12176. Nature of the test: in vitro MIC testing, Salmonella ATCC 12176. The following applies: ATCC12176, two values given. It counts as cell-based. How it is done: as §2
Test [1] relates to Serratia marc. ATCC 13880. Nature of the test: in vitro MIC testing, Serratia marc. ATCC 13880. It counts as cell-based. The conditions noted are these: ATCC13880, two values given. How it is done:
as §2

The subject of another test is Entero aerog. ATCC 13048. Nature of the test: in vitro MIC testing, Entero aerog. ATCC 13048. It counts as cell-based. The following applies: two values given. The procedure:
as §2

Another test deals with Kleb. pneumo. SK 1200. Nature of the test: in vitro MIC testing, Kleb. pneumo. SK 1200. In kind it is cell-based. The procedure:
as §2

The subject of another test is E. coli HH 33779. The test can be described thus: in vitro MIC testing, E. coli HH 33779. In kind it is cell-based. How it is done:
as §2

Another test concerns Kleb. pneumo. SK 4200. The test can be described thus: in vitro MIC testing, Kleb. pneumo. SK 4200. In kind it is cell-based. How it is done: as §2
For another test, the system named is S. aureus SK 23390. The test can be described thus: in vitro MIC testing, S. aureus SK 23390. In kind it is cell-based. How it is done:
as §2

A further test concerns Pseudo. aerug. HH 63. The test can be described thus: in vitro MIC testing, Pseudo. aerug. HH 63. In kind it is cell-based. The procedure:
as §2

A further test deals with Proteus mirabilis 444. Nature of the test: in vitro MIC testing, Proteus mirabilis 444. In kind it is cell-based. The procedure:
as §2

The next test concerns E. coli 12140. Nature of the test: in vivo mouse protection test, E. coli 12140. The procedure: as §1
The next test relates to Strep. faecalis HH 34358. Nature of the test: in vitro MIC testing, Strep. faecalis HH 34358. In kind it is cell-based. The procedure: as §2
Another test concerns Shigella HH 117. The test can be described thus: in vitro MIC testing, Shigella HH 117. In kind it is cell-based. The conditions noted are these: HH117. The procedure: as §2
The subject of another test is E. coli SK 12140. The test can be described thus: in vitro MIC testing, E. coli SK 12140. It counts as cell-based. The following applies: Escherichia coli, SK12140. The procedure: as §2
The next test deals with S. aureus HH 127. Nature of the test: in vitro MIC testing, S. aureus HH 127. In kind it is cell-based. How it is done:
as §2

For a further test, the system named is Proteus morgani 179. The test can be described thus: in vitro MIC testing, Proteus morgani 179. In kind it is cell-based. The following applies: two values given. How it is done: as §2
Setting [2] is: two values given, sodium salt hydrate.

Consider `Cc1nnc(SCC2=C(C(=O)O)N3C(=O)[C@@H](NC(=O)Cn4cnnn4)[C@H]3SC2)s1` [Cefazolin, reference compound], for which the ED50 – broadly, the midpoint of the dose-response relation – in the test with Kleb. pneumo. 4200 (mouse protection, Kleb. pneumo. 4200, subcutaneous, read-out: ED50) was 11.3 mg/kg; in the test on E. coli 12140 (Escherichia coli, sc, mouse protection, E. coli 12140, subcutaneous, read-out: ED50) it was 4 mg/kg. The MIC (commonly the lowest concentration that inhibits growth of the organism) was 0.8 µg/mL (≈ 1.76 µM) with Entero. cloacae HH 31254 (Entero. cloacae HH 31254, two values given, read-out: MIC); 0.8 µg/mL (≈ 1.76 µM) against Salmonella ATCC 12176; more than 200 µg/mL in test [1]; 1.6 µg/mL (≈ 3.52 µM) in the test with Entero aerog. ATCC 13048 (read-out: MIC); 0.8 µg/mL (≈ 1.76 µM) in the test on Kleb. pneumo. SK 1200 (Kleb. pneumo. SK 1200, two values given, read-out: MIC); 1.6 µg/mL (≈ 3.52 µM) in the test on E. coli HH 33779 (Escherichia coli, HH33779, two values given, read-out: MIC). Besides, the MIC in the test on Kleb. pneumo. SK 4200 (Kleb. pneumo. SK 4200, two values given, read-out: MIC) was 1.6 µg/mL (≈ 3.52 µM); in the test with S. aureus SK 23390 (Staphylococcus aureus, SK23390, two values given, read-out: MIC) it was 0.2 µg/mL (≈ 0.44 µM); with Pseudo. aerug. HH 63 (Pseudo. aerug. HH 63, two values given, read-out: MIC), more than 200 µg/mL; in the test on Proteus mirabilis 444 (read-out: MIC), 3.1 µg/mL (≈ 6.82 µM); in the test on Strep. faecalis HH 34358 (Enterococcus faecalis, HH34358, two values given, read-out: MIC), 6.3 µg/mL (≈ 13.9 µM); against Shigella HH 117, 0.4 µg/mL (≈ 0.88 µM). Besides, the MIC in the test on E. coli SK 12140 (E. coli SK 12140, two values given, read-out: MIC) came to 0.8 µg/mL (≈ 1.76 µM); with S. aureus HH 127 (Staphylococcus aureus, HH127, two values given, read-out: MIC) it was 0.4 µg/mL (≈ 0.88 µM); with Proteus morgani 179 (read-out: MIC), 200 µg/mL (≈ 440 µM).

For the compound `CS(=O)(=O)NCCn1nnnc1SCC1=C(C(=O)[O-])N2C(=O)[C@@H](NC(=O)[C@H](O)c3ccccc3)[C@H]2SC1.O.[Na+]` [Compound A, 7β-D-mandelamido-3-[1-(2-methanesulfonamidoethyl)tetrazol-5-ylthiomethyl]-3-cephem-4-carboxylic acid sodium salt hydrate], the ED50 came to 2.44 mg/kg with Kleb. pneumo. 4200 (Mus musculus) and 0.39 mg/kg in the test with E. coli 12140 (Escherichia coli, 12140, sc). In addition, the minimal inhibitory concentration (MIC) against Entero. cloacae HH 31254 is 0.8 µg/mL; with Salmonella ATCC 12176 it was 0.4 µg/mL; in the test with Entero aerog. ATCC 13048, 1.6 µg/mL; with Entero aerog. ATCC 13048 (sodium salt hydrate), 0.8 µg/mL; against Kleb. pneumo. SK 1200, 0.4 µg/mL; in the test on E. coli HH 33779 (Escherichia coli, HH33779, two values given), 1.6 µg/mL. The MIC in the test on E. coli HH 33779 (setting [2]) is 0.8 µg/mL; against Kleb. pneumo. SK 4200 it was 0.4 µg/mL; in the test with S. aureus SK 23390 (Staphylococcus aureus, SK23390, two values given) it was 0.8 µg/mL; in the test with S. aureus SK 23390 (setting [2]), 0.4 µg/mL; against Pseudo. aerug. HH 63, more than 200 µg/mL; with Proteus mirabilis 444 it was 0.8 µg/mL. In addition, the MIC amounted to 25 µg/mL against Strep. faecalis HH 34358 (Enterococcus faecalis, HH34358, two values given); 12.5 µg/mL in the test on Strep. faecalis HH 34358 (setting [2]); 0.2 µg/mL with Shigella HH 117; 0.8 µg/mL against E. coli SK 12140; 3.1 µg/mL in the test on S. aureus HH 127 (Staphylococcus aureus, HH127, two values given); 1.6 µg/mL in the test with S. aureus HH 127 (setting [2]). Moreover, the MIC in the test with Proteus morgani 179 turned out to be 1.6 µg/mL; in the test on Proteus morgani 179 (sodium salt hydrate), 0.8 µg/mL.
